Laboratory results reported in patent US7279161B2, “Factor IX/factor IXa activating antibodies and antibody derivatives” (Baxter Aktiengesellschaft, priority 1999, dated 2007).

System: FVIII deficient plasma
Assay: aPTT based one stage clotting assay in FVIII deficient plasma
Format: biochemical, human
Outline: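 Test samples preincubated 4 min with FVIII-deficient plasma and aPTT reagent (DAPTTIN or Pathromtin SL), optionally with 50 ng activated FIX; clotting started with 25 mM CaCl2. Read-out is clotting time from start to clot formation, set against FVIII, buffer or scrambled-peptide controls.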

Sequence: RRREGGGYYVNWYFDRRR [A1/3]
- reduction in the clotting time (Pathromtin SL, in the absence of FIXa): no reduction of the clotting time was detectable
- reduction in the clotting time (Pathromtin SL, in the presence of FIXa): dose dependent reduction in the clotting time
- average clotting time (Table 3A Exp. 1, DAPTTIN, 2.5 μM, 2.2 nM FIXa): 91 s
- clotting time (Table 3A Exp. 1, DAPTTIN, 2.5 μM, 2.2 nM FIXa, duplicate 1): 91.1 s
- clotting time (Table 3A Exp. 1, DAPTTIN, 2.5 μM, 2.2 nM FIXa, duplicate 2): 91 s
- average clotting time (Table 3A Exp. 1, DAPTTIN, 2.5 μM, w/o FIXa): 105 s
- clotting time (Table 3A Exp. 1, DAPTTIN, 2.5 μM, w/o FIXa, duplicate 1): 105.2 s
- clotting time (Table 3A Exp. 1, DAPTTIN, 2.5 μM, w/o FIXa, duplicate 2): 104.8 s
- average clotting time (Table 3A Exp. 1, DAPTTIN, 7.5 μM, 2.2 nM FIXa): 73 s
- clotting time (Table 3A Exp. 1, DAPTTIN, 7.5 μM, 2.2 nM FIXa, duplicate 1): 73.1 s
- clotting time (Table 3A Exp. 1, DAPTTIN, 7.5 μM, 2.2 nM FIXa, duplicate 2): 72.7 s
- average clotting time (Table 3A Exp. 1, DAPTTIN, 7.5 μM, w/o FIXa): 98 s
- clotting time (Table 3A Exp. 1, DAPTTIN, 7.5 μM, w/o FIXa, duplicate 1): 97.8 s
- clotting time (Table 3A Exp. 1, DAPTTIN, 7.5 μM, w/o FIXa, duplicate 2): 97.9 s
- average clotting time (Table 3A Exp. 1, DAPTTIN, 12.5 μM, 2.2 nM FIXa): 60 s
- clotting time (Table 3A Exp. 1, DAPTTIN, 12.5 μM, 2.2 nM FIXa, duplicate 1): 60.2 s
- clotting time (Table 3A Exp. 1, DAPTTIN, 12.5 μM, 2.2 nM FIXa, duplicate 2): 58.9 s
- average clotting time (Table 3A Exp. 1, DAPTTIN, 12.5 μM, w/o FIXa): 80 s
- clotting time (Table 3A Exp. 1, DAPTTIN, 12.5 μM, w/o FIXa, duplicate 1): 80.2 s
- clotting time (Table 3A Exp. 1, DAPTTIN, 12.5 μM, w/o FIXa, duplicate 2): 80.6 s
- average clotting time (Table 3A Exp. 1, DAPTTIN, 15 μM, 2.2 nM FIXa): 60 s
- clotting time (Table 3A Exp. 1, DAPTTIN, 15 μM, 2.2 nM FIXa, duplicate 1): 59.3 s
- clotting time (Table 3A Exp. 1, DAPTTIN, 15 μM, 2.2 nM FIXa, duplicate 2): 59.9 s
- average clotting time (Table 3A Exp. 1, DAPTTIN, 15 μM, w/o FIXa): 78 s
- clotting time (Table 3A Exp. 1, DAPTTIN, 15 μM, w/o FIXa, duplicate 1): 78.2 s
- clotting time (Table 3A Exp. 1, DAPTTIN, 15 μM, w/o FIXa, duplicate 2): 77.1 s
- average clotting time (Table 3A Exp. 2, DAPTTIN, 1.25 μM, 2.2 nM FIXa): 91 s
- clotting time (Table 3A Exp. 2, DAPTTIN, 1.25 μM, 2.2 nM FIXa, duplicate 1): 90.7 s
- clotting time (Table 3A Exp. 2, DAPTTIN, 1.25 μM, 2.2 nM FIXa, duplicate 2): 90.8 s
- average clotting time (Table 3A Exp. 2, DAPTTIN, 1.25 μM, w/o FIXa): 109 s
- clotting time (Table 3A Exp. 2, DAPTTIN, 1.25 μM, w/o FIXa, duplicate 1): 108.7 s
- clotting time (Table 3A Exp. 2, DAPTTIN, 1.25 μM, w/o FIXa, duplicate 2): 109.3 s
- average clotting time (Table 3A Exp. 2, DAPTTIN, 2.5 μM, 2.2 nM FIXa): 88 s
- clotting time (Table 3A Exp. 2, DAPTTIN, 2.5 μM, 2.2 nM FIXa, duplicate 1): 88 s
- clotting time (Table 3A Exp. 2, DAPTTIN, 2.5 μM, 2.2 nM FIXa, duplicate 2): 88.8 s
- average clotting time (Table 3A Exp. 2, DAPTTIN, 2.5 μM, w/o FIXa): 110 s
- clotting time (Table 3A Exp. 2, DAPTTIN, 2.5 μM, w/o FIXa, duplicate 1): 110.1 s
- clotting time (Table 3A Exp. 2, DAPTTIN, 2.5 μM, w/o FIXa, duplicate 2): 108.9 s
- average clotting time (Table 3A Exp. 2, DAPTTIN, 5 μM, 2.2 nM FIXa): 77 s
- clotting time (Table 3A Exp. 2, DAPTTIN, 5 μM, 2.2 nM FIXa, duplicate 1): 77 s
- clotting time (Table 3A Exp. 2, DAPTTIN, 5 μM, 2.2 nM FIXa, duplicate 2): 76 s
- average clotting time (Table 3A Exp. 2, DAPTTIN, 5 μM, w/o FIXa): 104 s
- clotting time (Table 3A Exp. 2, DAPTTIN, 5 μM, w/o FIXa, duplicate 1): 103.4 s
- clotting time (Table 3A Exp. 2, DAPTTIN, 5 μM, w/o FIXa, duplicate 2): 104.8 s
- average clotting time (Table 3A Exp. 2, DAPTTIN, 7.5 μM, 2.2 nM FIXa): 73 s
- clotting time (Table 3A Exp. 2, DAPTTIN, 7.5 μM, 2.2 nM FIXa, duplicate 1): 71.6 s
- clotting time (Table 3A Exp. 2, DAPTTIN, 7.5 μM, 2.2 nM FIXa, duplicate 2): 73.9 s
- average clotting time (Table 3A Exp. 2, DAPTTIN, 7.5 μM, w/o FIXa): 100 s
- clotting time (Table 3A Exp. 2, DAPTTIN, 7.5 μM, w/o FIXa, duplicate 1): 100.1 s
- clotting time (Table 3A Exp. 2, DAPTTIN, 7.5 μM, w/o FIXa, duplicate 2): 100.5 s
- average clotting time (Table 3A Exp. 2, DAPTTIN, 10 μM, 2.2 nM FIXa): 63 s
- clotting time (Table 3A Exp. 2, DAPTTIN, 10 μM, 2.2 nM FIXa, duplicate 1): 63.1 s
- clotting time (Table 3A Exp. 2, DAPTTIN, 10 μM, 2.2 nM FIXa, duplicate 2): 62.5 s
- average clotting time (Table 3A Exp. 2, DAPTTIN, 10 μM, w/o FIXa): 79 s
- clotting time (Table 3A Exp. 2, DAPTTIN, 10 μM, w/o FIXa, duplicate 1): 79.1 s
- clotting time (Table 3A Exp. 2, DAPTTIN, 10 μM, w/o FIXa, duplicate 2): 78.5 s
- average clotting time (Table 3A Exp. 2, DAPTTIN, 12.5 μM, 2.2 nM FIXa): 57 s
- clotting time (Table 3A Exp. 2, DAPTTIN, 12.5 μM, 2.2 nM FIXa, duplicate 1): 56.7 s
- clotting time (Table 3A Exp. 2, DAPTTIN, 12.5 μM, 2.2 nM FIXa, duplicate 2): 56.7 s
- average clotting time (Table 3A Exp. 2, DAPTTIN, 12.5 μM, w/o FIXa): 85 s
- clotting time (Table 3A Exp. 2, DAPTTIN, 12.5 μM, w/o FIXa, duplicate 1): 83.6 s
- clotting time (Table 3A Exp. 2, DAPTTIN, 12.5 μM, w/o FIXa, duplicate 2): 85.5 s
- average clotting time (Table 3B, Pathromtin SL, 1 μM, 2.2 nM FIXa): 105 s
- clotting time (Table 3B, Pathromtin SL, 1 μM, 2.2 nM FIXa, duplicate 1): 103.7 s
- clotting time (Table 3B, Pathromtin SL, 1 μM, 2.2 nM FIXa, duplicate 2): 105.9 s
- average clotting time (Table 3B, Pathromtin SL, 1 μM, w/o FIXa): 139 s
- clotting time (Table 3B, Pathromtin SL, 1 μM, w/o FIXa, duplicate 1): 138.3 s
- clotting time (Table 3B, Pathromtin SL, 1 μM, w/o FIXa, duplicate 2): 138.8 s
- average clotting time (Table 3B, Pathromtin SL, 5 μM, 2.2 nM FIXa): 88 s
- clotting time (Table 3B, Pathromtin SL, 5 μM, 2.2 nM FIXa, duplicate 1): 86.6 s
- clotting time (Table 3B, Pathromtin SL, 5 μM, 2.2 nM FIXa, duplicate 2): 90.2 s
- average clotting time (Table 3B, Pathromtin SL, 5 μM, w/o FIXa): 154 s
- clotting time (Table 3B, Pathromtin SL, 5 μM, w/o FIXa, duplicate 1): 152.6 s
- clotting time (Table 3B, Pathromtin SL, 5 μM, w/o FIXa, duplicate 2): 155.6 s
- average clotting time (Table 3B, Pathromtin SL, 10 μM, 2.2 nM FIXa): 78 s
- clotting time (Table 3B, Pathromtin SL, 10 μM, 2.2 nM FIXa, duplicate 1): 76.2 s
- clotting time (Table 3B, Pathromtin SL, 10 μM, 2.2 nM FIXa, duplicate 2): 79.8 s
- average clotting time (Table 3B, Pathromtin SL, 10 μM, w/o FIXa): 135 s
- clotting time (Table 3B, Pathromtin SL, 10 μM, w/o FIXa, duplicate 1): 135.7 s
- clotting time (Table 3B, Pathromtin SL, 10 μM, w/o FIXa, duplicate 2): 134.6 s
- average clotting time (Table 3B, Pathromtin SL, 15 μM, 2.2 nM FIXa): 75 s
- clotting time (Table 3B, Pathromtin SL, 15 μM, 2.2 nM FIXa, duplicate 1): 75.4 s
- clotting time (Table 3B, Pathromtin SL, 15 μM, 2.2 nM FIXa, duplicate 2): 75.2 s
- average clotting time (Table 3B, Pathromtin SL, 15 μM, w/o FIXa): 151 s
- clotting time (Table 3B, Pathromtin SL, 15 μM, w/o FIXa, duplicate 1): 152.8 s
- clotting time (Table 3B, Pathromtin SL, 15 μM, w/o FIXa, duplicate 2): 149.3 s
- average clotting time (Table 4, 1.25 μM, 2.2 nM FIXa): 95 s
- clotting time (Table 4, 1.25 μM, 2.2 nM FIXa, duplicate 1): 94.4 s
- clotting time (Table 4, 1.25 μM, 2.2 nM FIXa, duplicate 2): 95 s
- average clotting time (Table 4, 1.25 μM, w/o FIXa): 107 s
- clotting time (Table 4, 1.25 μM, w/o FIXa, duplicate 1): 106.7 s
- clotting time (Table 4, 1.25 μM, w/o FIXa, duplicate 2): 107 s
- average clotting time (Table 4, 2.5 μM, 2.2 nM FIXa): 93 s
- clotting time (Table 4, 2.5 μM, 2.2 nM FIXa, duplicate 1): 93.6 s
- clotting time (Table 4, 2.5 μM, 2.2 nM FIXa, duplicate 2): 93.3 s
- average clotting time (Table 4, 2.5 μM, w/o FIXa): 108 s
- clotting time (Table 4, 2.5 μM, w/o FIXa, duplicate 1): 107.9 s
- clotting time (Table 4, 2.5 μM, w/o FIXa, duplicate 2): 107.6 s
- average clotting time (Table 4, 5 μM, 2.2 nM FIXa): 89 s
- clotting time (Table 4, 5 μM, 2.2 nM FIXa, duplicate 1): 89.7 s
- clotting time (Table 4, 5 μM, 2.2 nM FIXa, duplicate 2): 88.3 s
- average clotting time (Table 4, 5 μM, w/o FIXa): 108 s
- clotting time (Table 4, 5 μM, w/o FIXa, duplicate 1): 108.4 s
- clotting time (Table 4, 5 μM, w/o FIXa, duplicate 2): 107.7 s
- average clotting time (Table 4, 7.5 μM, 2.2 nM FIXa): 81 s
- clotting time (Table 4, 7.5 μM, 2.2 nM FIXa, duplicate 1): 80.7 s
- clotting time (Table 4, 7.5 μM, 2.2 nM FIXa, duplicate 2): 80.5 s
- average clotting time (Table 4, 7.5 μM, w/o FIXa): 105 s
- clotting time (Table 4, 7.5 μM, w/o FIXa, duplicate 1): 105.2 s
- clotting time (Table 4, 7.5 μM, w/o FIXa, duplicate 2): 105.2 s
- average clotting time (Table 4, 10 μM, 2.2 nM FIXa): 73 s
- clotting time (Table 4, 10 μM, 2.2 nM FIXa, duplicate 1): 72 s
- clotting time (Table 4, 10 μM, 2.2 nM FIXa, duplicate 2): 73.2 s
- average clotting time (Table 4, 10 μM, w/o FIXa): 104 s
- clotting time (Table 4, 10 μM, w/o FIXa, duplicate 1): 104.4 s
- clotting time (Table 4, 10 μM, w/o FIXa, duplicate 2): 104.5 s
- average clotting time (Table 4, 12.5 μM, 2.2 nM FIXa): 67 s
- clotting time (Table 4, 12.5 μM, 2.2 nM FIXa, duplicate 1): 65 s
- clotting time (Table 4, 12.5 μM, 2.2 nM FIXa, duplicate 2): 68 s
- average clotting time (Table 4, 12.5 μM, w/o FIXa): 100 s
- clotting time (Table 4, 12.5 μM, w/o FIXa, duplicate 1): 99.4 s
- clotting time (Table 4, 12.5 μM, w/o FIXa, duplicate 2): 100.5 s
- average clotting time (Table 4, 15 μM, 2.2 nM FIXa): 56 s
- clotting time (Table 4, 15 μM, 2.2 nM FIXa, duplicate 1): 56.1 s
- clotting time (Table 4, 15 μM, 2.2 nM FIXa, duplicate 2): 55.5 s
- average clotting time (Table 4, 15 μM, w/o FIXa): 78 s
- clotting time (Table 4, 15 μM, w/o FIXa, duplicate 1): 77.8 s
- clotting time (Table 4, 15 μM, w/o FIXa, duplicate 2): 78 s
